Data on 2 compounds can be found in US8071780B2, “2-Hydroxymethyl-3,4,5-trihydroxy-1-benzilpiperidine derivatives as inhibitors of glucosylceramide” (Actelion Pharmaceuticals Ltd., priority 2003, dated 2011).

The target of experiment [1] is T1, human recombinant GCS expressed in insect cells (Homo sapiens, UniProt Q16739).
T1 construct: made in house; host or cells: insect cells
T1 sequence (Q16739 1-394): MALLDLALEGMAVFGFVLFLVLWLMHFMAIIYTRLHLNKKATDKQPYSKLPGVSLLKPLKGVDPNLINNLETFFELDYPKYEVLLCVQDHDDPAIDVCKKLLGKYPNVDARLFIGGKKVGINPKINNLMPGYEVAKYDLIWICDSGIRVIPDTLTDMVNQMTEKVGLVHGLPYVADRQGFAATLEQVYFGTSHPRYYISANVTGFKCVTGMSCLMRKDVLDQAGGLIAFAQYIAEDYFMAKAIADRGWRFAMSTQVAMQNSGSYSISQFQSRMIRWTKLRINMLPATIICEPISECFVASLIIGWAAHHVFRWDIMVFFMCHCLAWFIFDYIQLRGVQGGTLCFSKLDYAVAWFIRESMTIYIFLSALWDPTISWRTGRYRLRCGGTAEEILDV
Description: Inhibition of GCS (glucosylceramide synthase). The format is biochemical. On the procedure: The assay for inhibition of GCS was performed essentially as described in Platt et al., J. Biol. Chem., (1994), 269, 27108, the enzyme source being human recombinant GCS expressed in insect cells.

Experiment [2] has as its target T2, non-lysosomal-β-glucocerebrosidase (Homo sapiens, UniProt Q9HCG7).
T2 construct: whole cell extracts of MCF7 (a human breast carcinoma cell line) was used as the source of the enzyme; endogenous in cells; host or cells: MCF7 whole cell extract
T2 sequence (Q9HCG7 1-927): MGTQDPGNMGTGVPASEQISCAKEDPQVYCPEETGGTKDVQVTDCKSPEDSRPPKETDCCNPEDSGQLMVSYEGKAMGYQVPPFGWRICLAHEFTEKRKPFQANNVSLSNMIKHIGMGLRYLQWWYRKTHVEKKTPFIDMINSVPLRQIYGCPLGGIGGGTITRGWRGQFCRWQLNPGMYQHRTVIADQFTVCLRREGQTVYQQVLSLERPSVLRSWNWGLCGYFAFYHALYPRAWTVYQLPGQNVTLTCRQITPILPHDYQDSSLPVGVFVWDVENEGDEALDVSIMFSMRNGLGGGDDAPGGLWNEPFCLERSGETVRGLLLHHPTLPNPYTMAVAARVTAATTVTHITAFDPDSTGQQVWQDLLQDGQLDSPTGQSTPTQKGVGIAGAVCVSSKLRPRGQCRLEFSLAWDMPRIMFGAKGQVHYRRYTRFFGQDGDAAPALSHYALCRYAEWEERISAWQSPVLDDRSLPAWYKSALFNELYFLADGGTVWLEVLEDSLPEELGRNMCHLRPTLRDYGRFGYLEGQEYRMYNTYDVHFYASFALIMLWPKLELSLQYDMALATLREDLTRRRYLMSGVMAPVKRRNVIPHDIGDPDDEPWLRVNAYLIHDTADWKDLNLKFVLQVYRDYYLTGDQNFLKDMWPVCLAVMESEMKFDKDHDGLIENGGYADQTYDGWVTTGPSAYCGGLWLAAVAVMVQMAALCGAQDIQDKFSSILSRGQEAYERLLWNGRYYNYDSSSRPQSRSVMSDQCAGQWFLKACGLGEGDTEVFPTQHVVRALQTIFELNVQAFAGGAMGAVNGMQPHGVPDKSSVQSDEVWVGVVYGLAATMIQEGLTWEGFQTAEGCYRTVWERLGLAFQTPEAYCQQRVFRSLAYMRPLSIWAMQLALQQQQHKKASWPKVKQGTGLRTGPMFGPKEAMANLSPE
In words: Inhibition of non-lysosomal-β-glucocerebrosidase. It counts as biochemical. To be noted: whole cell extracts of MCF7 as enzyme source; 5 mM 4-MU β-glucoside; pH 5.8. How it is done: Inhibition of non-lysosomal-β-glucocerebrosidase
The assay for inhibition of non-lysosomal-β-glucocerebrosidase was essentially carried out as described in Overkleeft, H. S. et al., J. Biol. Chem. (1998) 273, 26522-26527 with the following differences: whole cell extracts of MCF7 (a human breast carcinoma cell line) was used as the source of the enzyme instead of splenic membrane suspensions; 5 mM instead of 3 mM, 4-MU β-glucoside was used as substrate and 0.2M citrate/phosphate (pH 5.8) was used instead of McIlvaine buffer.

In a further experiment the target is T3, human GCS (Homo sapiens, UniProt Q16739).
T3 construct: endogenous in cells; host or cells: MCF-7
T3 sequence (Q16739 1-394): T1 sequence (Q16739 1-394)
In words: Cell-based IC50 for GCS inhibition by measuring glucosylceramide (GlcCer) depletion. To be noted: MCF-7 cells cultured 5-7 days with compound; GlcCer depletion by HPTLC; read-out: Inhibition of GCS Cellular-based (IC50 μM). How it is done: Estimating the Cell-Based IC50 for GCS Inhibition by Measuring Glucosylceramide (GlcCer) Depletion
Human mammary epithelial cells (MCF-7) were cultured for 5-7 days, with varying concentrations of a compound of the invention to be tested (0; 0.01; 0.05; 0.25; 1.25 and 6.25 μM). The cells were harvested and the total cellular lipids extracted. Neutral glycolipids were separated by partitioning in a DIPE/1-butanol/saline suspension, according to methods well known to those skilled in the art. The neutral glycolipid extracts were then separated by High-Performance Thin Layer Chromatography (HPTLC), using non-polar TLC conditions (chloroform:methanol: 0.2% CaCl2; 65:35:8), according to methods well known to those skilled in the art. GlcCer bands were visualized and the TLC plates were scanned immediately. Scion Image software was then used to quantify GlcCer in the samples relative to a GlcCer standard. This enabled a cell-based IC50 to be calculated for compounds of the invention for GCS inhibition.

Regarding `CCCCCOc1ccc(CN2C[C@H](O)[C@@H](O)[C@H](O)[C@@H]2CO)cc1` [Example 1, 3,4,5-Piperidinetriol, 2-(hydroxymethyl)-1-[(4-pentyloxyphenyl)methyl]-, (2S,3R,4R,5S)], the IC50 in experiment [1] is 0.15 µM; in experiment [2] it was 0.001 µM; on human GCS it was around 0.015 µM.
`CCCCOc1ccc(CN2C[C@H](O)[C@@H](O)[C@H](O)[C@@H]2CO)cc1` [Example 2, 3,4,5-Piperidinetriol, 1-[(4-butoxyphenyl)methyl]-2-(hydroxymethyl)-, (2S,3R,4R,5S)]: the IC50 in experiment [1] was 0.42 µM; in experiment [2], 0.004 µM.

As usually defined, the IC50 is the concentration at which inhibition is half-maximal.
